Experimental data published in patent US20200023067A1, “DUAL-ACTION ELAFIBRANOR METFORMIN SALT FOR TREATING OBESITY ASSOCIATED WITH NON-ALCOHOLIC STEATOHEPATITIS (NASH) AND […]” (NASHPHARM, priority 2016, published 2020).
In brackets after ≈: the same amount, converted by molar mass. Several values for one entry are separate records, joined by “and”; a condition that tells them apart may be missing. Equal entries are not always repeated. Where two headings read alike, the source gives them in different places.

Columns and labels:
Type in all cases: physicochemical
[1] = Solubility test on the elafibranor (GFT505) metformin salt; conditions: aqueous buffer, thermodynamic from solid
Experimental: The solubility kinetics is determined in an aqueous medium (water and pharmacopoeia buffers), at ambient temperature.

[2] = Stability after exposure to light and temperature, by UPLC MS; conditions: powder form or solution; daylight, ambient temperature; compared with the salt
Experimental: The products were exposed to daylight and to ambient temperature.
The reference samples for their part are stored cool (2°-8° C.), protected from light by aluminum paper and under inert gas for the solid product.

[3] = Thermodynamic solubility of elafibranor in aqueous buffers and cosolvents; conditions: for solubility at 72 h / solubility at 24 h / solubility: 23 °C, thermodynamic from solid; for solubility at 72 h / solubility at 24 h: ambient temperature (22°-24° C.); for solubility at 72 h: read-out: Solubility after 72 hours; for solubility at 24 h: read-out: Solubility after 24 hours
Experimental: The thermodynamic solubility of the basic elafibranor is studied over a period of 24 hours and 72 hours in various aqueous buffers in the presence or not of surfactants. Batch number EM0274L2 is used for this work. After 24 hours and 72 hours of incubation at ambient temperature (22°-24° C.), the solutions are sampled and then filtered over 0.2 μm polycarbonate filters in flasks for LCMS analyses, and diluting once in DMSO before stirring for 2 minutes (vortex or sonification).

[4] = as above; conditions: for solubility at 24 h: read-out: Solubility after 24 hours
[5] = Solubility test on the elafibranor (GFT505) metformin salt; conditions: organic solvent or mixture, thermodynamic from solid, ambient temperature
[6] = aqueous buffer, aqueous buffer, Buffer pH 4.6
[7] = aqueous buffer, aqueous buffer, Buffer pH 7.4
[8] = aqueous buffer, aqueous buffer, Buffer pH 8.5

In the case of `CSc1ccc(C(=O)/C=C/c2cc(C)c(OC(C)(C)C(=O)O)c(C)c2)cc1` [elafibranor, 2-[2,6 dimethyl-4-[3-[4-(methylthio)phenyl]-3-oxo-1(E)-propenyl]phenoxyl]-2-methylpropanoic acid], the solubility ([1]; Buffer pH 4.6, ambient temperature) is reported as 114 µM and 44 µg/mL, the solubility ([1]; Buffer pH 7.4, ambient temperature) is reported as 504 µM and 194 µg/mL and the solubility ([1]; Buffer pH 8.5, ambient temperature) is reported as 4420 µM and 1700 µg/mL. For the same compound, the “Sensitivity to light (photosensitivity)” value [2] was “more sensitive to light”, the solubility at 72 h ([3]; organic solvent or mixture, Propylene glycol) was 35100 µM and 13500 µg/mL and the solubility at 24 h [3, 6] was 114 µM and 44 µg/mL. The solubility at 72 h [3, 6] was 110 µM and 42 µg/mL, the solubility at 24 h [3, 7] was 504 µM and 194 µg/mL and the solubility at 72 h [3, 7] was 609 µM and 234 µg/mL. The solubility at 24 h [3, 8] was 4420 µM and 1700 µg/mL, the solubility at 72 h [3, 8] was 4270 µM and 1640 µg/mL and the solubility ([3]; aqueous buffer, pH 4.6, aqueous buffer) was 114 µM (≈ 43.8 µg/mL). For the same compound, the solubility ([3]; aqueous buffer, pH 8.5, aqueous buffer) was 4420 µM (≈ 1700 µg/mL), the “Solubility in an aqueous medium” value ([3]; aqueous medium) was “low” and the solubility at 24 h ([4]; 23 °C, organic solvent or mixture, thermodynamic from solid, Polyethylene glycol 400, ambient temperature (22°-24° C.)) was 39000 µM and 15000 µg/mL. For the same compound, the solubility at 72 h ([4]; 23 °C, organic solvent or mixture, thermodynamic from solid, Polyethylene glycol 400, ambient temperature (22°-24° C.), read-out: Solubility after 72 hours) was 41000 µM and 15800 µg/mL, the solubility at 24 h ([4]; 23 °C, organic solvent or mixture, thermodynamic from solid, Propylene glycol, ambient temperature (22°-24° C.)) was 33500 µM and 12900 µg/mL and the “Effect of cosolvent on solubility” value ([4]; addition of cosolvent such as propylene glycol or PEG 400) was “significantly improves the solubility”. The solubility ([5]; Polyethylene glycol 400) was 39000 µM and 15000 µg/mL and the solubility ([5]; Propylene glycol) was 33500 µM and 12900 µg/mL.
